Experimental data reported in US20260077047A1, “CANCER THERAPY” (TURBINE SIMULATED CELL TECHNOLOGIES LTD, priority 2022, published 2026).

How the values were obtained:
Assay in all cases: ATM inhibition viability assay (CTG) on cells ± NEK-1 knockout
Format in all cases: cell-based
Conditions in all cases: AZD1390 10 μM-0.00152 μM, 7 days, normalized to DMSO
[1] = test system: Daoy cells ± NEK-1 knockout
Method: (§1) • i. Adhered cells were washed with 1 mL DPBS and trypsinised by addition of trypsin to 0.05% w/v and incubation under standard conditions. • ii. 1 mL cell culture medium was added to the detached cells to inhibit trypsin and suspended cells were centrifuged at 200×g for 5 minutes at room temperature. • iii. The supernatant was discarded and the cells were resuspended in 1 ml cell culture medium and exact cell number was determined using hemocytometer after Trypan blue staining. • iv. Cells were seeded according to table 5 in 90 μl/well in opaque 96-well plates in triplicate. Cells were grown overnight under standard conditions in complete culture medium (see 1c) […].
(§2) • v. Cells were treated with AZD1390 over the concentration range 10 μM-0.00152 μM, prepared by 10-point 3× serial dilutions from a 10 mM DMSO stock. Cells were incubated under standard conditions with the compounds for 7 days with refresh of the medium and drug twice a week. • vi. After the 7 day incubation, CGT assays were performed to assess cell viability.
(§3) Data showing cell viability for NEK1 knockout cell lines and NT cell lines are shown in FIGS. 4A-D. Data are normalized relative to cells treated with DMSO only.

[2] = test system: HCC1806 cells ± NEK-1 knockout
Method: as §1, §2, §3

[3] = test system: HSC-2 cells ± NEK-1 knockout
Method: as §1, §2, §3

Measured: effect on cell viability when combined with a NEK-1 knockout

CC(C)n1c(=O)n(C)c2cnc3cc(F)c(-c4ccc(OCCCN5CCCCC5)nc4)cc3c21 [AZD1390]
synergistic effect: all assays above
